Measured values published in PubChem BioAssay (NCI).
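Protocol summary: plate cells (96-well), add compound at 5 concentrations, incubate 48 h, interpolate endpoints linearly. Abbreviation: GI50, concentration required for 50% inhibition of growth. TGI: total growth inhibition.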

Columns and labels:
Assay in all cases: DTP human tumour cell line panel, 48 h
BT-549 breast = system: BT-549 breast
CAKI-1 renal = system: CAKI-1 renal
M14 melanoma = system: M14 melanoma
MDA-MB-231 breast = system: MDA-MB-231 breast
MDA-MB-435 = system: MDA-MB-435
NCI-H23 lung = system: NCI-H23 lung
NCI/ADR-RES ovarian = system: NCI/ADR-RES ovarian
SNB-19 CNS = system: SNB-19 CNS
TK-10 renal = system: TK-10 renal
OVCAR-3 ovarian = system: OVCAR-3 ovarian

CNc1ccc(N=Nc2cccc3ncccc23)cc1
GI50 (BT-549 breast): 24.4 µM
TGI (BT-549 breast): > 100 µM
GI50 (CAKI-1 renal): 6 µM
TGI (CAKI-1 renal): > 100 µM
GI50 (M14 melanoma): 44.3 µM
TGI (M14 melanoma): > 100 µM
GI50 (MDA-MB-231 breast): 7.47 µM
TGI (MDA-MB-231 breast): > 100 µM
GI50 (MDA-MB-435): 19.7 µM
TGI (MDA-MB-435): > 100 µM
GI50 (NCI-H23 lung): 17.1 µM
TGI (NCI-H23 lung): > 100 µM
GI50 (NCI/ADR-RES ovarian): 23.3 µM
TGI (NCI/ADR-RES ovarian): > 100 µM
GI50 (SNB-19 CNS): > 80.6 µM
TGI (SNB-19 CNS): > 100 µM
GI50 (TK-10 renal): > 100 µM
TGI (TK-10 renal): > 100 µM

COc1cccc(C2CC(=O)Nc3cc4c(cc32)CCC4)c1OC (stereo not given)
GI50 (BT-549 breast): 3.57 µM
TGI (BT-549 breast): 16.7 µM
GI50 (CAKI-1 renal): 3.36 µM
TGI (CAKI-1 renal): 56.2 µM
GI50 (M14 melanoma): 2.59 µM
TGI (M14 melanoma): 8.94 µM
GI50 (MDA-MB-231 breast): 6.17 µM
TGI (MDA-MB-231 breast): 39.5 µM
GI50 (MDA-MB-435): 1.44 µM
TGI (MDA-MB-435): 4.1 µM
GI50 (NCI-H23 lung): 3.4 µM
TGI (NCI-H23 lung): 26.1 µM
GI50 (NCI/ADR-RES ovarian): 2.43 µM
TGI (NCI/ADR-RES ovarian): 7.14 µM
GI50 (OVCAR-3 ovarian): 2.37 µM
TGI (OVCAR-3 ovarian): 5.9 µM
GI50 (SNB-19 CNS): 8.66 µM
TGI (SNB-19 CNS): > 100 µM
GI50 (TK-10 renal): 12.4 µM
TGI (TK-10 renal): > 100 µM

CCOc1cccc(/C=N/NC(=O)Cc2ccc(Nc3ccnc(C(F)(F)F)c3)cc2)c1O
GI50 (BT-549 breast): 2.34 µM
TGI (BT-549 breast): 46.3 µM
GI50 (CAKI-1 renal): 2.54 µM
TGI (CAKI-1 renal): 52.2 µM
GI50 (M14 melanoma): 1.79 µM
TGI (M14 melanoma): 15.8 µM
GI50 (MDA-MB-231 breast): 3.15 µM
TGI (MDA-MB-231 breast): > 100 µM
GI50 (MDA-MB-435): 3.77 µM
TGI (MDA-MB-435): > 100 µM
GI50 (NCI-H23 lung): 5.26 µM
TGI (NCI-H23 lung): > 100 µM
GI50 (NCI/ADR-RES ovarian): 4.23 µM
TGI (NCI/ADR-RES ovarian): > 100 µM
GI50 (OVCAR-3 ovarian): 0.394 µM
TGI (OVCAR-3 ovarian): 30.4 µM
GI50 (SNB-19 CNS): 2.54 µM
TGI (SNB-19 CNS): > 100 µM
GI50 (TK-10 renal): 4.01 µM
TGI (TK-10 renal): 44.5 µM

Cc1nc2cc(Nc3nc(Nc4ccc(F)cc4)nc(-c4ccc(Cl)cc4)n3)ccc2n1Cc1ccccc1
GI50 (BT-549 breast): 6.14 µM
TGI (BT-549 breast): 39.8 µM
GI50 (M14 melanoma): 4.42 µM
TGI (M14 melanoma): > 100 µM
GI50 (MDA-MB-231 breast): 9.97 µM
TGI (MDA-MB-231 breast): > 100 µM
GI50 (MDA-MB-435): 3.6 µM
TGI (MDA-MB-435): > 100 µM
GI50 (NCI-H23 lung): 14.7 µM
TGI (NCI-H23 lung): > 100 µM
GI50 (NCI/ADR-RES ovarian): 5.51 µM
TGI (NCI/ADR-RES ovarian): 33.8 µM
GI50 (OVCAR-3 ovarian): 7.91 µM
TGI (OVCAR-3 ovarian): > 100 µM
GI50 (SNB-19 CNS): 9.77 µM
TGI (SNB-19 CNS): > 100 µM

NC(=O)c1ncn(C2OC(CO)C(O)C2O)c1NC(=S)NC(=O)c1ccccc1 (stereo not given)
TGI (CAKI-1 renal): > 100 µM
TGI (M14 melanoma): > 100 µM
TGI (NCI-H23 lung): > 100 µM
TGI (OVCAR-3 ovarian): > 100 µM
TGI (SNB-19 CNS): > 100 µM
TGI (TK-10 renal): > 100 µM

NCCNc1nc2ccccc2c2c(=O)c3cc(F)cc(Cl)c3sc12
GI50 (BT-549 breast): 1.55 µM
TGI (BT-549 breast): 2.93 µM
GI50 (CAKI-1 renal): 1.41 µM
TGI (CAKI-1 renal): 2.8 µM
GI50 (M14 melanoma): 1.65 µM
TGI (M14 melanoma): 3.03 µM
GI50 (MDA-MB-231 breast): 1.48 µM
TGI (MDA-MB-231 breast): 2.93 µM
GI50 (MDA-MB-435): 1.73 µM
TGI (MDA-MB-435): 3.22 µM
GI50 (NCI-H23 lung): 1.75 µM
TGI (NCI-H23 lung): 3.42 µM
GI50 (NCI/ADR-RES ovarian): 1.81 µM
TGI (NCI/ADR-RES ovarian): 3.65 µM
GI50 (OVCAR-3 ovarian): 1.72 µM
TGI (OVCAR-3 ovarian): 3.18 µM

CC(=O)[O-].O=[N+]([O-])c1ccc([O-])c(C=NCCN=Cc2cc([N+](=O)[O-])ccc2[O-])c1.[Mn+3]
GI50 (M14 melanoma): > 100 µM
TGI (M14 melanoma): > 100 µM
GI50 (NCI-H23 lung): > 100 µM
TGI (NCI-H23 lung): > 100 µM
GI50 (OVCAR-3 ovarian): 63 µM
TGI (OVCAR-3 ovarian): > 100 µM
GI50 (SNB-19 CNS): > 100 µM
TGI (SNB-19 CNS): > 100 µM
GI50 (TK-10 renal): > 100 µM
TGI (TK-10 renal): > 100 µM

C1=CC=C2NCCSCCNC3=CC=CC=CC3=NCCSCCN=C2C=C1
TGI (CAKI-1 renal): > 100 µM
TGI (M14 melanoma): > 100 µM
TGI (NCI-H23 lung): > 100 µM
TGI (OVCAR-3 ovarian): > 100 µM
TGI (SNB-19 CNS): > 100 µM
TGI (TK-10 renal): > 100 µM

CCCCCCCCCCCCCCCCCCNC(=O)[C@H]1CSC(c2ccc(F)c(OC)c2)N1 (stereo not given in full)
GI50 (BT-549 breast): 0.974 µM
TGI (BT-549 breast): 1.85 µM
GI50 (CAKI-1 renal): 0.846 µM
TGI (CAKI-1 renal): 1.58 µM
GI50 (M14 melanoma): 0.713 µM
TGI (M14 melanoma): 1.47 µM
GI50 (MDA-MB-231 breast): 0.842 µM
TGI (MDA-MB-231 breast): 1.67 µM
GI50 (MDA-MB-435): 0.518 µM
TGI (MDA-MB-435): 1.2 µM
GI50 (NCI-H23 lung): 1.42 µM
TGI (NCI-H23 lung): 5.05 µM
GI50 (NCI/ADR-RES ovarian): 1.07 µM
TGI (NCI/ADR-RES ovarian): 2.41 µM
GI50 (SNB-19 CNS): 0.996 µM
TGI (SNB-19 CNS): 1.96 µM

COc1cc(/C=C2/C(=O)N(C(=O)c3ccccc3O)N=C2C)ccc1O
TGI (CAKI-1 renal): > 25.5 µM
TGI (M14 melanoma): 35.3 µM
TGI (MDA-MB-231 breast): > 100 µM
TGI (MDA-MB-435): > 100 µM
TGI (NCI/ADR-RES ovarian): > 100 µM
TGI (OVCAR-3 ovarian): 0.989 µM
TGI (SNB-19 CNS): > 100 µM
TGI (TK-10 renal): > 100 µM

O=C1[C@H]2ON(c3ccccc3)C(c3cccc([N+](=O)[O-])c3)[C@H]2C(=O)N1c1ccc(Cc2ccc(N3C(=O)[C@@H]4ON(c5ccccc5)C(c5cccc([N+](=O)[O-])c5)[C@@H]4C3=O)cc2)cc1 (stereo not given in full)
TGI (CAKI-1 renal): > 100 µM
TGI (M14 melanoma): 60.8 µM
TGI (NCI-H23 lung): > 100 µM
TGI (OVCAR-3 ovarian): > 100 µM
TGI (SNB-19 CNS): > 100 µM
TGI (TK-10 renal): > 100 µM

COc1ccc(-c2conc2-c2ccccc2)cc1
GI50 (BT-549 breast): 0.94 µM
TGI (BT-549 breast): 12.8 µM
GI50 (CAKI-1 renal): 0.246 µM
TGI (CAKI-1 renal): > 100 µM
GI50 (M14 melanoma): 0.268 µM
TGI (M14 melanoma): > 100 µM
GI50 (MDA-MB-231 breast): 0.615 µM
TGI (MDA-MB-231 breast): > 27.5 µM
GI50 (NCI-H23 lung): 0.549 µM
TGI (NCI-H23 lung): > 100 µM
GI50 (NCI/ADR-RES ovarian): 0.142 µM
TGI (NCI/ADR-RES ovarian): > 100 µM
GI50 (SNB-19 CNS): 0.647 µM
TGI (SNB-19 CNS): > 100 µM
GI50 (TK-10 renal): 15.3 µM
TGI (TK-10 renal): > 100 µM

CCCCOP1(=O)C=CC(Cl)=C(C)C1 (stereo not given)
TGI (CAKI-1 renal): > 100 µM
TGI (M14 melanoma): > 100 µM
TGI (OVCAR-3 ovarian): 77.7 µM
TGI (SNB-19 CNS): > 100 µM
TGI (TK-10 renal): 75.1 µM

CC(C)(C)c1cc(C(=O)O)c(C(c2ccccc2)c2ccccc2C(=O)O)c(C(=O)O)c1 (stereo not given)
TGI (CAKI-1 renal): > 100 µM
TGI (M14 melanoma): > 100 µM
TGI (NCI-H23 lung): > 100 µM
TGI (OVCAR-3 ovarian): > 100 µM
TGI (SNB-19 CNS): > 100 µM
TGI (TK-10 renal): > 100 µM

C=C1c2ccccc2N(S(=O)(=O)c2ccc(C)cc2)C12CCCCC2
TGI (M14 melanoma): > 100 µM
TGI (NCI-H23 lung): > 100 µM
TGI (OVCAR-3 ovarian): > 100 µM
TGI (SNB-19 CNS): > 100 µM
TGI (TK-10 renal): > 100 µM

CN1C=C(C(N)=O)C2CC(O)[C@@](NC(=O)CS(N)(=O)=O)(C(=O)O)C2C1 (stereo not given in full)
TGI (CAKI-1 renal): > 100 µM
TGI (M14 melanoma): 2.8 µM
TGI (NCI-H23 lung): 3.48 µM
TGI (OVCAR-3 ovarian): 42.6 µM
TGI (SNB-19 CNS): 19.3 µM
TGI (TK-10 renal): 28.5 µM

O=C1OC(c2ccc(Cl)c3ccccc23)c2ccccc21 (stereo not given)
TGI (CAKI-1 renal): > 100 µM
TGI (M14 melanoma): > 100 µM
TGI (NCI-H23 lung): > 100 µM
TGI (SNB-19 CNS): > 100 µM

BrC(Br)([P+](c1ccccc1)(c1ccccc1)c1ccccc1)[P+](c1ccccc1)(c1ccccc1)c1ccccc1
TGI (CAKI-1 renal): 39.5 µM
TGI (M14 melanoma): 48.9 µM
TGI (NCI-H23 lung): 34 µM
TGI (OVCAR-3 ovarian): 28.7 µM
TGI (TK-10 renal): > 100 µM

CCCC/C=C1\CCC(CN2CCCC2)C1=O (stereo not given)
TGI (M14 melanoma): 23.4 µM
TGI (NCI-H23 lung): 32.1 µM
TGI (OVCAR-3 ovarian): 31.5 µM
TGI (SNB-19 CNS): 48.9 µM
TGI (TK-10 renal): 6.3 µM

O=c1ncccn1C1OC(CO)C(O)C1F (stereo not given)
TGI (CAKI-1 renal): > 100 µM
TGI (M14 melanoma): > 100 µM
TGI (NCI-H23 lung): > 100 µM
TGI (OVCAR-3 ovarian): > 100 µM
TGI (SNB-19 CNS): > 100 µM
TGI (TK-10 renal): > 100 µM
